What was measured:
Format in all cases: in vivo
Lucilia cuprina = Lucilia cuprina test; conditions: 48 h, L1 larvae, after 2 days, read-out: efficacy (kill in %)
Experimental: Lucilia cuprina Test Solvent: dimethyl sulphoxide To produce a suitable preparation of active compound, 10 mg of active compound are mixed with 0.5 ml of dimethyl sulphoxide, and the concentrate is diluted with water to the desired concentration. About 20 L1 larvae of the Australian sheep blowfly (Lucilia cuprina) are transferred into a test vessel containing minced horsemeat and the active compound preparation of the desired concentration. After 2 days, the kill in % is determined. 100% means that all the larvae have been killed; 0% means that no larvae have been killed.

Myzus persicae [1] = assay: Myzus persicae oral test; conditions: 120 h, 20 ppm, oral uptake, after 5 days, read-out: efficacy
Method in brief: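 Aphids of mixed ages imbibe, through parafilm, compound solution (acetone stock, water-diluted) combined with sugar-supplemented IPL41 medium to 200 μl. Efficacy read at day 5 as percent killed, 0% meaning no deaths.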

Phaedon cochleariae = Phaedon cochleariae spray test; conditions: foliar, 168 h, Chinese cabbage leaf discs, larvae, after 7 days, read-out: efficacy
Experimental: Phaedon cochleariae—Spray Test
To produce a suitable preparation of active compound, 1 part by weight of active compound is dissolved using the specified parts by weight of solvent and made up with water containing an emulsifier concentration of 1000 ppm until the desired concentration is attained. To produce further test concentrations, the formulation is diluted with emulsifier-containing water.
After 7 days, the efficacy in % is determined. 100% means that all the beetle larvae have been killed; 0% means that no beetle larvae have been killed.

Meloidogyne incognita = Meloidogyne incognita test; conditions: 336 h, lettuce, after 14 days, read-out: nematicidal efficacy (formation of galls)
Method in brief: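 Gall formation on lettuce roots scored after 14 days: 0% means gall count equals untreated control, 100% means none. Sand vessels held the compound (acetone concentrate diluted in water), southern root-knot nematode egg/larvae suspension and lettuce seeds.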

Myzus persicae [2] = assay: Myzus persicae spray test (Chinese cabbage leaf discs); conditions: foliar, 120 h, 500 g/ha, after 5-6 days, read-out: efficacy
Method in brief: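 Formulated compound in acetone/dimethylformamide, diluted in water with 1000 ppm emulsifier, was sprayed onto Brassica pekinensis leaf discs carrying mixed-stage Myzus persicae. Percent mortality was read 5-6 days later (0% = no aphids killed, 100% = all killed).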

Structure (SMILES)	pest or weed control at 100 ppm (Lucilia cuprina) [%]	pest or weed control at 20 ppm (Myzus persicae [1]) [%]	pest or weed control at 500 g/ha (Phaedon cochleariae) [%]	pest or weed control at 20 ppm (Meloidogyne incognita) [%]	pest or weed control at 500 g/ha (Myzus persicae [2]) [%]
Cc1ccccc1S(=O)(=O)NC(=O)c1cn(C)c(-c2cccc(Cl)c2Cl)n1 [Example 519]	100	100	100	100	90
COc1ccc(Cl)c(S(=O)(=O)NC(=O)c2cn(C)c(-c3c(F)cccc3F)n2)c1 [Example 92]	95	100	–	–	100
Cc1ccccc1S(=O)(=O)NC(=O)c1cn(C)c(-c2ccccc2Cl)n1 [Example 54]	100	100	–	100	100
Cn1cc(C(=O)NS(=O)(=O)c2ccccc2Cl)nc1-c1ncccc1Cl [Example 539]	100	100	–	–	90
Cn1cc(C(=O)NS(=O)(=O)c2ccccc2C(F)(F)F)nc1-c1c(F)cccc1Cl [Example 109]	100	100	–	90	100
COc1ccc(C)c(S(=O)(=O)NC(=O)c2cn(C)c(-c3c(F)cccc3F)n2)c1 [Example 401]	100	100	100	90	100
CSc1ccccc1S(=O)(=O)NC(=O)c1cn(C)c(-c2c(F)cccc2F)n1 [Example 383]	100	100	100	–	100
Cn1cc(C(=O)NS(=O)(=O)c2ccccc2C(F)(F)F)nc1-c1c(Cl)cccc1Cl [Example 23]	100	100	100	–	100
COc1cc(S(=O)(=O)NC(=O)c2cn(C)c(-c3c(F)cccc3F)n2)c(C)cc1Br [Example 285]	100	100	100	100	90
Cc1ccc(Cl)cc1S(=O)(=O)NC(=O)c1cn(C)c(-c2ccccc2Cl)n1 [Example 37]	100	100	100	100	90
Cc1cccc(C)c1S(=O)(=O)NC(=O)c1cn(C)c(-c2cccc(Cl)c2Cl)n1 [Example 558]	100	100	100	90	90
Cc1ccc(F)cc1S(=O)(=O)NC(=O)c1cn(C)c(-c2ncccc2Cl)n1 [Example 584]	100	100	100	90	100
Cn1cc(C(=O)NS(=O)(=O)c2ccccc2Br)nc1-c1ccccc1Cl [Example 36]	100	100	100	100	100
Cc1ccccc1S(=O)(=O)NC(=O)c1cc(C)n(-c2ncccc2Cl)n1 [Example 274]	95	100	–	90	100
Cc1ccccc1S(=O)(=O)NC(=O)c1cn(C)c(-c2c(Cl)cccc2Cl)n1 [Example 25]	100	100	–	–	100
CCc1ccccc1S(=O)(=O)NC(=O)c1cn(C)c(-c2ncccc2F)n1 [Example 572]	100	100	83	–	100
Cc1cccc(C(F)(F)F)c1S(=O)(=O)NC(=O)c1cn(C)c(-c2cccc(Cl)c2Cl)n1 [Example 561]	–	100	100	100	90
Cc1cc(C(=O)NS(=O)(=O)c2cc(Cl)ccc2Br)nn1-c1c(F)cccc1F [Example 294]	–	100	100	100	100

Structure (SMILES)	pest or weed control at 100 ppm (Lucilia cuprina) [%]	pest or weed control at 20 ppm (Myzus persicae [1]) [%]	pest or weed control at 500 g/ha (Phaedon cochleariae) [%]	pest or weed control at 20 ppm (Meloidogyne incognita) [%]	pest or weed control at 500 g/ha (Myzus persicae [2]) [%]
Cc1cc(Cl)ccc1S(=O)(=O)NC(=O)c1cn(C)c(-c2c(F)cccc2F)n1 [Example 445]	–	90	100	100	100
Cc1ccc(F)cc1S(=O)(=O)NC(=O)c1cn(C)c(-c2ccccc2Cl)n1 [Example 425]	–	100	100	90	100
Cc1ccccc1S(=O)(=O)NC(=O)c1cn(C)c(-c2ncccc2Br)n1 [Example 579]	–	100	100	90	100
Cc1cccc(C)c1S(=O)(=O)NC(=O)c1cn(C)c(-c2ncccc2Cl)n1 [Example 587]	–	100	100	90	90
Cn1cc(C(=O)NS(=O)(=O)c2ccccc2I)nc1-c1ccccc1Cl [Example 428]	–	100	100	90	100
CCc1ccc(Cl)cc1S(=O)(=O)NC(=O)c1cn(C)c(-c2ncccc2F)n1 [Example 603]	–	100	100	90	90
COc1ccc(Br)c(S(=O)(=O)NC(=O)c2cn(C)c(-c3ccccc3Cl)n2)c1 [Example 420]	–	100	83	90	100
Cc1cccc(F)c1S(=O)(=O)NC(=O)c1cn(C)c(-c2c(F)cccc2F)n1 [Example 363]	–	100	100	90	100
COc1ccc(Br)c(S(=O)(=O)NC(=O)c2cn(C)c(-c3ncccc3Cl)n2)c1 [Example 597]	–	100	100	90	100
Cn1cc(C(=O)NS(=O)(=O)c2ccccc2Cl)nc1-c1c(Cl)cccc1Cl [Example 100]	–	100	100	90	100
Cn1cc(C(=O)NS(=O)(=O)c2c(Br)cccc2C(F)(F)F)nc1-c1c(F)cccc1F [Example 373]	–	100	100	90	100
Cc1cc(C)c(S(=O)(=O)NC(=O)c2cn(C)c(-c3c(F)cccc3F)n2)c(C)c1 [Example 436]	–	100	100	90	90
Cn1cc(C(=O)NS(=O)(=O)c2cccc3ccccc23)nc1-c1c(F)cccc1F [Example 510]	–	100	100	90	100
Cn1cc(C(=O)NS(=O)(=O)c2ccccc2C(F)(F)F)nc1-c1ccccc1Cl [Example 58]	–	100	100	90	90
Cc1cc(Br)ccc1S(=O)(=O)NC(=O)c1cn(C)c(-c2ccccc2Cl)n1 [Example 282]	–	100	100	100	90
Cn1cc(C(=O)NS(=O)(=O)c2cc(Cl)cc(Cl)c2)nc1-c1c(F)cccc1F [Example 188]	–	100	100	100	90
CCc1ccc(Cl)cc1S(=O)(=O)NC(=O)c1cn(C)c(-c2c(F)cccc2F)n1 [Example 279]	–	100	100	100	90

Reference: patent publication US20200288710A1, “SUBSTITUTED SULPHONAMIDES FOR CONTROLLING ANIMAL PESTS” (BAYER CROPSCIENCE AKTIENGESELLSCHAFT, priority 2016, published 2020)
